Measurements reported in patent publication US20250114289A1, “HAIR DYE COMPOSITION” (The Procter & Gamble Company, priority 2023, published 2025).

Assays:
[1] = Solubility of photochromic dyes in cosmetically acceptable solvents; type: physicochemical
From the text: Thus, it is important to select a solvent that is suitable for use on human skin and hair and enables formulation of a stable hair dye composition with sufficient dye to provide good hair coloring results.

[2] = Activating EMR and deactivating EMR wavelengths of diarylethene photochromic dyes; type: physicochemical; settings: for peak deactivating EMR: FIG. 6; for peak activating EMR: FIG. 5
From the text: The activation and deactivation properties are illustrated in FIGS. 5 and 6, respectively.

## Cc1sc(-c2ccccc2)cc1C1=C(c2cc(-c3ccccc3)sc2C)C(F)(F)C(F)(F)C1(F)F [DAE-0001, 3,3′-(perfluorocyclopent-1-ene-1,2-diyl)bis(2-methyl-5-phenylthiophene)]
[1]; solvent Caprylic triglyceride
  Max concentration: 0.66 % w/w
[1]; solvent Isopropyl isostearate
  Max concentration: 4.95 % w/w
[1]; solvent Isopropyl myristate
  Max concentration: 4.8 % w/w
[1]; solvent Oleyl alcohol
  Max concentration: 1.47 % w/w
[1]; solvent Polysorbate 20
  Max concentration: 0.9 % w/w
[1]; solvent Polysorbate 80
  Max concentration: 1.08 % w/w
[2]
  peak deactivating EMR: 560-610 nm

## Cc1sc(-c2ccccc2)nc1C1=C(c2nc(-c3ccccc3)sc2C)C(F)(F)C(F)(F)C1(F)F [DAE-0012, 4,4′-(perfluorocyclopent-1-ene-1,2-diyl)bis(5-methyl-2-phenylthiazole)]
[1]; solvent Caprylic triglyceride
  Max concentration: 0.91 % w/w
[1]; solvent Isopropyl isostearate
  Max concentration: 2.32 % w/w
[1]; solvent Isopropyl myristate
  Max concentration: 2.25 % w/w
[1]; solvent Oleyl alcohol
  Max concentration: 0.79 % w/w
[1]; solvent Polysorbate 20
  Max concentration: 1.78 % w/w
[1]; solvent Polysorbate 80
  Max concentration: 2.20 % w/w
[2]
  peak activating EMR: 290-310 nm
  peak deactivating EMR: 510-540 nm

## Cc1cc(C)c(C2=C(c3sc(C)cc3C)C(F)(F)C(F)(F)C2(F)F)s1 [DAE-0068, 5,5′-(perfluorocyclopent-1-ene-1,2-diyl)bis(2,4-dimethylthiophene)]
[1]; solvent Caprylic triglyceride
  Max concentration: 3.46 % w/w
[1]; solvent Isopropyl isostearate
  Max concentration: 3.41 % w/w
[1]; solvent Isopropyl myristate
  Max concentration: 3.09 % w/w
[1]; solvent Oleyl alcohol
  Max concentration: 1.34 % w/w
[1]; solvent Polysorbate 20
  Max concentration: 0.95 % w/w
[1]; solvent Polysorbate 80
  Max concentration: 0.89 % w/w
[2]
  peak activating EMR: 330-360 nm
  peak deactivating EMR: 410-450 nm
